Test results published in patent US20240059698A1 (Accutar Biotechnology Inc., priority 2022, published 2024).

Assays:
[1] = tested on: HCC827-YVMA cells (human ERBB2 exon20 insertion mutant A775_G776ins YVMA); test: Cell growth inhibition (CellTiter-Glo), HCC827-YVMA; type: cell-based; details: 72 h, HCC827-YVMA cells, 3 days, CellTiter-Glo, read-out: Cell growth inhibition, GI50 (nM) HCC827-YVMA
Experimental: (§1) Generation of HCC827-SVD, HCC827-ASV, and HCC827-YVMA cell lines. The HCC827-SVD cell line was generated by first transducing HCC827 cells (ATCC) with lentiviral particles expressing codon-optimized human EGFR exon 20 insertion mutant D770_N771insSVD, and then selecting under 5 µg/mL puromycin treatment for a week. The resulting cells were further transduced with lentiviral particles carrying EGFR sgRNA and CAS9 to knockout the endogenous alleles of EGER and then selected under 500 µg/mL hygromycin B treatment for two weeks. The limiting dilution approach was used to subsequently generate the single clone of the HCC827-SVD stable cell line. Endogenous EGFR knockout was confirmed by Sanger sequencing of cell genomic DNA, and expression of exogenous mutant EGFR was verified by Western blot analysis.
HCC827-ASV and HCC827-YVMA cell lines were generated in a similar approach as HCC827-SVD, except that HCC827 cells (ATCC) were first transduced with lentiviral particles expressing codon-optimized human EGFR exon 20 insertion mutant V769_D770insASV and human ERBB2 exon20 insertion mutant A775_G776ins YVMA, respectively.
(§2) 2. Cell Growth Inhibition for HCC827, HCC827-SVD, HCC827-ASV, HCC827-YVMA, and A431.
(§3) HCC827(ATCC), HCC827-SVD, HCC827-ASV, and HCC827-YVMA cells were seeded in 96-well plates at 5000 cells/well in 90 μL of RPMI growth medium containing 10% FBS and 1% Penicillin Streptomycin. A431 (ATCC) cells were seeded in 96-well plates at 5000 cells/well in 90 μL of DMEM growth medium containing 10% FBS and 1% Penicillin Streptomycin. Cells were incubated at 37° C. overnight and then administered with 10 μL 10× test compounds prepared in the growth medium at various concentrations. After administration of the compounds, cells were incubated at 37° C. for 3 days. Before the CellTiter-Glo assay, the plates were equilibrated at room temperature for approximately 30 minutes. 100 ul of CellTiter-Glo reagent (Promega) was added to each well. The plates were then incubated at room temperature for 10 minutes and luminescence was recorded by the EnSight® multimode plate reader (PerkinElmer). Table 7 listed selected compounds in cellular growth assay.

[2] = tested on: HCC827-SVD cells (human EGFR exon 20 insertion mutant D770_N771insSVD); test: Cell growth inhibition (CellTiter-Glo), HCC827-SVD; type: cell-based; details: 72 h, 3 days
Experimental: as §1, §2, §3

GI50 [1] [nM] | GI50 [2] [nM] | Structure (SMILES)
< 50 | < 50 | C=CC(=O)N1CCC(c2c[nH]c3ncnc(Nc4ccc(OCc5ccc6sccc6n5)c(Cl)c4)c23)CC1 [Compound 75, 1-(4-(4-((3-chloro-4-(thieno[3,2-b]pyridin-5-ylmethoxy)phenyl)amino)-7H-pyrrolo[2,3-d]pyrimidin-5-yl)piperidin-1-yl)prop-2-en-1-one]
< 50 | < 50 | C=CC(=O)N1CCC(c2c(C)[nH]c3ncnc(Nc4ccc(OCc5ccccn5)c(Cl)c4)c23)CC1 [Compound 76, 1-(4-(4-((3-chloro-4-(pyridin-2-ylmethoxy)phenyl)amino)-6-methyl-7H-pyrrolo[2,3-d]pyrimidin-5-yl)piperidin-1-yl)prop-2-en-1-one]
< 50 | < 50 | C=CC(=O)N1CCC(c2c[nH]c3ncnc(Nc4ccc(OCc5cncnc5)c(Cl)c4)c23)CC1 [Compound 77, 1-(4-(4-((3-chloro-4-(pyrimidin-5-ylmethoxy)phenyl)amino)-7H-pyrrolo[2,3-d]pyrimidin-5-yl)piperidin-1-yl)prop-2-en-1-one]
50 to 200 | 200 to 1000 | C=CC(=O)N1CCC(c2c[nH]c3ncnc(Nc4ccc(Oc5ccnc(Nc6cnccn6)c5)cc4F)c23)CC1 [Compound 78, 1-(4-(4-((2-fluoro-4-((2-(pyrazin-2-ylamino)pyridin-4-yl)oxy)phenyl)amino)-7H-pyrrolo[2,3-d]pyrimidin-5-yl)piperidin-1-yl)prop-2-en-1-one]
200 to 1000 | 200 to 1000 | C=CC(=O)N1CCC(c2c[nH]c3ncnc(Nc4ccc(OCc5ccnc(N6CC7CC7C6)c5)cc4F)c23)CC1 (centres unmarked) [Compound 79, 1-(4-(4-((4-((2-(3-azabicyclo[3.1.0]hexan-3-yl)pyridin-4-yl)methoxy)-2-fluorophenyl)amino)-7H-pyrrolo[2,3-d]pyrimidin-5-yl)piperidin-1-yl)prop-2-en-1-one]
< 50 | < 50 | C=CC(=O)N1CCC(c2c[nH]c3ncnc(Nc4ccc(OCc5cncc(OC)c5)c(Cl)c4)c23)CC1 [Compound 80, 1-(4-(4-((3-chloro-4-((5-methoxypyridin-3-yl)methoxy)phenyl)amino)-7H-pyrrolo[2,3-d]pyrimidin-5-yl)piperidin-1-yl)prop-2-en-1-one]
50 to 200 | 50 to 200 | C=CC(=O)N1CCC(c2c[nH]c3ncnc(Nc4ccc(OCc5ccnn5CC)c(Cl)c4)c23)CC1 [Compound 81, 1-(4-(4-((3-chloro-4-((1-ethyl-1H-pyrazol-5-yl)methoxy)phenyl)amino)-7H-pyrrolo[2,3-d]pyrimidin-5-yl)piperidin-1-yl)prop-2-en-1-one]
200 to 1000 | > 1000 | C=CC(=O)N1CCC(c2c[nH]c3ncnc(Nc4ccc(Oc5ccnc(-c6cccc(F)c6)c5)cc4F)c23)CC1 [Compound 82, 1-(4-(4-((2-fluoro-4-((2-(3-fluorophenyl)pyridin-4-yl)oxy)phenyl)amino)-7H-pyrrolo[2,3-d]pyrimidin-5-yl)piperidin-1-yl)prop-2-en-1-one]
50 to 200 | 200 to 1000 | C=CC(=O)N1CCC(c2c[nH]c3ncnc(Nc4ccc(Oc5ccnc(Nc6ccncn6)c5)cc4F)c23)CC1 [Compound 83, 1-(4-(4-((2-fluoro-4-((2-(pyrimidin-4-ylamino)pyridin-4-yl)oxy)phenyl)amino)-7H-pyrrolo[2,3-d]pyrimidin-5-yl)piperidin-1-yl)prop-2-en-1-one]
50 to 200 | < 50 | C=CC(=O)N1CCC(c2c[nH]c3ncnc(Nc4ccc(OCc5ccnc(NC6CCC6)c5)cc4F)c23)CC1 [Compound 84, 1-(4-(4-((4-((2-(cycloButylamino)pyridin-4-yl)methoxy)-2-fluorophenyl)amino)-7H-pyrrolo[2,3-d]pyrimidin-5-yl)piperidin-1-yl)prop-2-en-1-one]
50 to 200 | 50 to 200 | C=CC(=O)N1CCC(c2c[nH]c3ncnc(Nc4ccc(OCc5cn(C(C)C)cn5)c(Cl)c4)c23)CC1 [Compound 85, 1-(4-(4-((3-chloro-4-((1-isopropyl-1H-imidazol-4-yl)methoxy)phenyl)amino)-7H-pyrrolo[2,3-d]pyrimidin-5-yl)piperidin-1-yl)prop-2-en-1-one]
< 50 | < 50 | C=CC(=O)N1CCC(c2c[nH]c3ncnc(Nc4ccc(OCc5cncs5)c(Cl)c4)c23)CC1 [Compound 86, 1-(4-(4-((3-chloro-4-(thiazol-5-ylmethoxy)phenyl)amino)-7H-pyrrolo[2,3-d]pyrimidin-5-yl)piperidin-1-yl)prop-2-en-1-one]
50 to 200 | 50 to 200 | C=CC(=O)N1CCC(c2c[nH]c3ncnc(Nc4ccc(OCc5cnc(C(F)(F)F)s5)c(Cl)c4)c23)CC1 [Compound 87, 1-(4-(4-((3-chloro-4-((2-(trifluoromethyl)thiazol-5-yl)methoxy)phenyl)amino)-7H-pyrrolo[2,3-d]pyrimidin-5-yl)piperidin-1-yl)prop-2-en-1-one]
50 to 200 | 50 to 200 | C=CC(=O)N1CCC(c2c[nH]c3ncnc(Nc4ccc(OCc5cccc(C6CC6)n5)c(Cl)c4)c23)CC1 [Compound 88, 1-(4-(4-((3-chloro-4-((6-cyclopropylpyridin-2-yl)methoxy)phenyl)amino)-7H-pyrrolo[2,3-d]pyrimidin-5-yl)piperidin-1-yl)prop-2-en-1-one]
50 to 200 | 50 to 200 | C=CC(=O)N1CCC(c2c[nH]c3ncnc(Nc4ccc(OCc5cc(C6CC6)ccn5)c(Cl)c4)c23)CC1 [Compound 89, 1-(4-(4-((3-chloro-4-((4-cyclopropylpyridin-2-yl)methoxy)phenyl)amino)-7H-pyrrolo[2,3-d]pyrimidin-5-yl)piperidin-1-yl)prop-2-en-1-one]
< 50 | 200 to 1000 | C=CC(=O)N1CCC(c2c[nH]c3ncnc(Nc4ccc(Oc5ccnc(NC(=O)C(C)(C)C)c5)cc4F)c23)CC1 [Compound 91, N-(4-(4-((5-(1-acryloylpiperidin-4-yl)-7H-pyrrolo[2,3-d]pyrimidin-4-yl)amino)-3-fluorophenoxy)pyridin-2-yl)pivalamide]
200 to 1000 | 200 to 1000 | C=CC(=O)N1CCC(c2c[nH]c3ncnc(Nc4ccc(Oc5ccnc(N6CC(N(C)C)C6)c5)cc4F)c23)CC1 [Compound 129, 1-(4-(4-((4-((2-(3-(dimethylamino)azetidin-1-yl)pyridin-4-yl)oxy)-2-fluorophenyl)amino)-7H-pyrrolo[2,3-d]pyrimidin-5-yl)piperidin-1-yl)prop-2-en-1-one]
50 to 200 | 50 to 200 | C=CC(=O)N1CCC(c2c[nH]c3ncnc(Nc4ccc(Oc5ccnc(N6CC(O)(C(C)C)C6)c5)cc4F)c23)CC1 [Compound 130, 1-[4-[4-[2-fluoro-4-[[2-(3-hydroxy-3-isopropyl-azetidin-1-yl)-4-pyridyl]oxy]anilino]-7H-pyrrolo[2,3-d]pyrimidin-5-yl]-1-piperidyl]prop-2-en-1-one]
50 to 200 | 200 to 1000 | C=CC(=O)N1CCC(c2csc3ncnc(Nc4ccc(Oc5ccnc(NC(=O)C6CCCC6)c5)cc4F)c23)CC1 [Compound 161, N-(4-(4-((5-(1-acryloylpiperidin-4-yl)thieno[2,3-d]pyrimidin-4-yl)amino)-3-fluorophenoxy)pyridin-2-yl)cyclopentanecarboxamide]
200 to 1000 | > 1000 | C=CC(=O)N1CCC(c2csc3ncnc(Nc4ccc(Oc5ccnc(NC(=O)C(C)(C)C)c5)cc4F)c23)CC1 [Compound 162, N-(4-(4-((5-(1-acryloylpiperidin-4-yl)thieno[2,3-d]pyrimidin-4-yl)amino)-3-fluorophenoxy)pyridin-2-yl)pivalamide]
50 to 200 | 50 to 200 | C=CC(=O)N1CCC(c2n[nH]c3ncnc(Nc4ccc(Oc5cccc(S(=O)(=O)NC6CC(F)(F)C6)c5)cc4F)c23)CC1 [Compound 185, 3-(4-((3-(1-acryloylpiperidin-4-yl)-1H-pyrazolo[3,4-d]pyrimidin-4-yl)amino)-3-fluorophenoxy)-N-(3,3-difluorocycloButyl)benzenesulfonamide]
50 to 200 | 50 to 200 | C=CC(=O)N1CCC(c2n[nH]c3ncnc(Nc4ccc(Oc5ccnc(NC(=O)C(C)(C)C)c5)cc4F)c23)CC1 [Compound 192, N-(4-(4-((3-(1-acryloylpiperidin-4-yl)-1H-pyrazolo[3,4-d]pyrimidin-4-yl)amino)-3-fluorophenoxy)pyridin-2-yl)pivalamide]
